Test results from paper PMC8297402, “Trifluoromethyl-substituted 3,5-bis(arylidene)-4-piperidones as potential anti-hepatoma and anti-inflammation agents by inhibiting NF-кB activation” (Journal of Enzyme Inhibition and Medicinal Chemistry, 2021).
Where two headings read alike, the source gives them in different places.

Key:
[1] = tested on: HepG2; assay: Modified MTT cytotoxicity assay, HepG2; type: cell-based, Human; conditions: for IC50: MTT, 24 h incubation, three replicates, read-out: Cytotoxicity IC50 HepG2; for SI (selectivity index) HepG2: quotient of IC50 for normal (LO2) and malignant (HepG2) cells
Description: (§1) The HepG2, SMMC-7721, and LO2 cell lines were maintained at 37 °C, 5% humidified CO2, and 95% atmosphere. Dulbecco's Modified Eagle (DMEM) medium containing 10% foetal bovine serum (FBS) was used for culturing the HepG2 cell line; meanwhile, Roswell Park Memorial Institute (RPMI) 1640 medium containing 10% FBS was used for culturing other cell lines (SMMC-7721, LO2). The HepG2, SMMC-7721 and LO2 cells were seeded in a 96-well plate in 200 μL of medium per well at a density of approximately 8 × 10^3 cells/well and cultured for 24 h, followed by incubation in an incubator of indicated compounds with successive concentrations (10, 5, 2.5, 1.25, 0.625, 0.3125 μg/mL) for 24 h. In the control group, cells were only cultured with culture media. After the media were removed, 20 μL of MTT (5 mg/mL) was added, then cells were incubated for 4 h at 37 °C. […] GraphPad Prism 5 software was used to calculate their IC50 values. Every IC50 value was the average of three replicates. Doxorubicin (DOX) and curcumin were used as positive controls.

[2] = tested on: SMMC-7721; assay: Modified MTT cytotoxicity assay, SMMC-7721; type: cell-based, Human; conditions: for IC50: MTT, 24 h incubation, three replicates; for SI (selectivity index) SMMC-7721: quotient of IC50 for normal (LO2) and malignant (SMMC-7721) cells
Description: as §1

[3] = tested on: A549; assay: Modified MTT cytotoxicity assay, A549; conditions: for SI (selectivity index) A549: quotient of IC50 for normal (HHL-5) and malignant (A549) cells
Description: To further verify the anti-tumour activity, one human non-small cell lung cancer cell line (A549), one human ovarian cancer cell line (A2780), and one human normal heptical cell line (HHL-5) were screened by BAPs (4–30) using a modified MTT assay (Supporting Information). DOX and curcumin were selected as positive controls.
The optical density (OD) value of each well was measured on a
multi-well plate reader (TECAN, Mӓnnedorf, Switzerland ) at 570 nm.
Every IC 50 value was the average of three replicates.
Doxorubicin (DOX) and Curcumin were used as positive controls.

[4] = tested on: TNF-α; assay: ELISA of TNF-α release in LPS-stimulated RAW264.7 cells; type: cell-based, mouse; conditions: RAW264.7, ELISA; for inhibition at 5 µM: Mus musculus, RAW264.7, BAPs (5 μM) + LPS (1 μg/mL), read-out: Inhibition rate TNF-α
Description: (§2) We tested by inhibiting the secretion of TNF-α and IL-6 to better evaluated the anti-inflammatory effects of BAPs. […] Under the stimulation of LPS (1.0 μg/mL) with RAW264.7 cells, the release of TNF-α and IL-6 was detected. Besides, after treated with BAPs (5.0 μM) and LPS (1.0 μg/mL), the release of TNF-α and IL-6 was measured with an ELISA kit (eBioScience, San Diego, California), respectively. In general terms, pyrrolidine dithiocarbamate (PDTC, 30 μM) or BAP (5.0 μM) was used to pretreat cells for 2 h, respectively. Then, LPS (1.0 μg/mL) was added and cells were incubated for another 22 h. Finally, the culture media were centrifuged at 1000 rpm for 10 min, and the expression levels of TNF-α and IL-6 were determined by ELISA.

[5] = Modified MTT cytotoxicity assay, normal heptical cell line HHL-5; conditions: human, HHL-5 cells (normal hepatic cell line)
[6] = tested on: A2780; assay: Modified MTT cytotoxicity assay, A2780; conditions: for SI (selectivity index) A2780: quotient of IC50 for normal (HHL-5) and malignant (A2780) cells
[7] = Modified MTT cytotoxicity assay, normal heptical cell line LO2; type: cell-based, human; conditions: human, LO2 cells (normal hepatic cell line), 24 h incubation
Description: as §1

[8] = tested on: IL-6; assay: ELISA of IL-6 release in LPS-stimulated RAW264.7 cells; type: cell-based, mouse; conditions: RAW264.7, ELISA; for inhibition at 5 µM: Mus musculus, RAW264.7, BAPs (5 μM) + LPS (1 μg/mL), read-out: Inhibition rate IL-6
Description: as §2

[9] = tested on: RAW264.7 cell; assay: MTT toxicity pre-experiment on RAW264.7 macrophagocyte; type: cell-based, mouse; conditions: for viability at 5 µM: Mus musculus, RAW264.7, BAPs 5 μM, read-out: Survival rate RAW264.7 cell
Description: Lipopolysaccharide (LPS) is a key constituent of Gram-negative bacterial endotoxin, which is used to induce an inflammatory response in corresponding inflammatory cells. TNF-α and IL-6 are two kinds of representative pro-inflammatory factors, which produced by LPS-stimulated RAW264.7 macrophage. In our pre-experiments, the toxicity against RAW264.7 macrophagocyte for all title compounds was tested by the MTT assay, and the results were listed in Table 2. The survival rates were above 80% for all BAPs (4-30) at the concentration of 5.0 μM.

[10] = tested on: LO2; assay: Modified MTT cytotoxicity assay, normal heptical cell line LO2; type: cell-based, human; conditions: 24 h incubation
Description: as §1

[11] = Homo sapiens, A549, read-out: Cytotoxicity IC50 A549, MTT, non-small cell lung cancer cell line
[12] = Homo sapiens, A2780, read-out: Cytotoxicity IC50 A2780, MTT, ovarian cancer cell line

Compound | IC50 ([1]; Homo sapiens, HepG2, 24 h) | IC50 ([2]; Homo sapiens, SMMC-7721, 24 h) | IC50 [3, 11] | inhibition at 5 µM [4] | IC50 [5] | IC50 [6, 12] | IC50 at 24 h [7] | inhibition at 5 µM [8] | viability at 5 µM [9] | SI (selectivity index) HepG2 [1] | SI (selectivity index) SMMC-7721 [2] | SI (selectivity index) A549 [3] | SI (selectivity index) A2780 [6] | also measured
Cc1ccc(S(=O)(=O)N2C/C(=C\c3ccccc3C(F)(F)F)C(=O)/C(=C/c3ccccc3C(F)(F)F)C2)cc1 [BAP 5] | 17.5 ± 0.1 µM | 19.7 ± 0.1 µM | 14000 ± 1990 nM | 46.2 ± 1% | 24.9 ± 0.1 µM | 4850 ± 470 nM | 36.2 ± 2.3 µM | 49.6 ± 1.1% | 93.3 ± 1.7% | – | – | – | – | –
COc1cc(/C=C/C(=O)CC(=O)/C=C/c2ccc(O)c(OC)c2)ccc1O [Curcumin, reference compound] | ~15.3 µM | ~19.5 µM | 32000 ± 3550 nM | – | 24.2 ± 0.5 µM | 44000 ± 9820 nM | 29.1 ± 2.1 µM | – | – | 1.9 | 1.5 | 0.8 | 0.5 | –
O=C1/C(=C/c2ccccc2C(F)(F)F)CN(S(=O)(=O)c2ccc(F)cc2)C/C1=C\c1ccccc1C(F)(F)F [BAP 8] | 4 ± 0.2 µM | 8.3 ± 0.2 µM | 13400 ± 1390 nM | 46.8 ± 4.2% | 11.8 ± 0.2 µM | 1440 ± 540 nM | 13.8 ± 1.1 µM | 51.3 ± 3.3% | 82.1 ± 1.9% | – | – | – | – | –
O=C1/C(=C/c2cccc(C(F)(F)F)c2)CN(S(=O)(=O)c2ccc(Cl)cc2)C/C1=C\c1cccc(C(F)(F)F)c1 [BAP 18] | 5.2 ± 0.1 µM | 13.9 ± 0.1 µM | 150 ± 20 nM | 50.6 ± 3.2% | 2.2 ± 0.1 µM | 190 ± 20 nM | 14.1 ± 0.1 µM | 46.2 ± 2.1% | 85.7 ± 4.2% | – | – | – | – | –
O=C1/C(=C/c2ccc(C(F)(F)F)cc2)CN(S(=O)(=O)c2ccc(F)cc2)C/C1=C\c1ccc(C(F)(F)F)cc1 [BAP 26] | – | – | – | – | – | – | – | – | – | 5.1 | 5.1 | 70.6 | 38.0 | IC50 [1]: 3.1 ± 0.2 µM; IC50 [2]: 3.1 ± 0.1 µM; IC50 ([3]; read-out: Cytotoxicity IC50 A549, MTT, non-small cell lung cancer cell line): 160 ± 50 nM; Inhibition rate TNF-α ([4]; BAPs (5 μM) + LPS (1 μg/mL)): 66.3 ± 5.3%; IC50 ([6]; read-out: Cytotoxicity IC50 A2780, MTT, ovarian cancer cell line): 297 ± 50 nM; IC50 [10]: 15.7 ± 0.2 µM; Inhibition rate IL-6 ([8]; BAPs (5 μM) + LPS (1 μg/mL)): 62.8 ± 3.0%; Survival rate RAW264.7 cell ([9]; BAPs 5 μM): 87.6 ± 1.7%
N#Cc1ccc(S(=O)(=O)N2C/C(=C\c3cccc(C(F)(F)F)c3)C(=O)/C(=C/c3cccc(C(F)(F)F)c3)C2)cc1 [BAP 20] | 0.9 ± 0.1 µM | 4.3 ± 0.2 µM | 170 ± 2 nM | 75.2 ± 2.7% | 2.4 ± 0.4 µM | 150 ± 20 nM | 17.4 ± 0.1 µM | 77.7 ± 1.5% | 83.7 ± 1.3% | 19.3 | 4.0 | 14.1 | 16.0 | –
O=C1/C(=C/c2ccc(C(F)(F)F)cc2)CN(S(=O)(=O)c2ccccc2)C/C1=C\c1ccc(C(F)(F)F)cc1 [BAP 22] | ~1.8 µM | ~8.5 µM | 180 ± 20 nM | 65.2 ± 1.3% | 7.9 ± 0.1 µM | 170 ± 60 nM | 18.2 ± 0.2 µM | 68.3 ± 1.3% | 89.4 ± 7.8% | – | – | – | – | –
